Measurements from patent US8158623B2, “Heptacyclic compounds and the pharmaceutical uses thereof for preventing and treating diabetes and metabolic syndrome” (Shanghai Institute of Materia Medica Chinese Academy of …, priority 2007, dated 2012).

Columns and labels:
ob/ob mice [1] = test: Hypoglycemic effect of the combination of F7 with Glibenclamide; assay type: in vivo; conditions: Glibenclamide 25 mg/kg oral, with or without F7 50 mg/kg oral pretreatment for 10 days
Description: (§1) Genetic spontaneous diabetes ob/ob mice were purchased from Jackson (USA), and maintained in a SPF facility (temperature: 22-24° C., humidity: 45-80%, illumination: 150-300 Lx, 12/12-hour light/dark cycle). Fasting blood glucose was determined daily for 3 days continuously when the mice were 7 weeks old. The mice were grouped into the pretreatment group of Compound F7 and non-pretreatment group (16 animals per group) according to the results determined. The groups were administered orally with compound F7 (50 mg/kg) or a solution of 0.1% Tween 80 respectively, once daily for 10 days. The pretreatment group and the non-pretreatment group were divided into two subsets (8 animals per subset) respectively, and subcutaneously injected with insulin (0.6 U/kg) or orally administered with Glibenclamide (25 mg/kg) respectively. Then, blood glucose levels were measured at different time points and the percentage of change in blood glucose level was calculated.

ob/ob mice [2] = test: Hypoglycemic effect of the combination of F7 with insulin; assay type: in vivo; conditions: insulin 0.6 U/kg s.c., with or without F7 50 mg/kg oral pretreatment for 10 days
Description: as §1

Compound	The percentage of change in blood glucose level (ob/ob mice [1]; 1 h)	The percentage of change in blood glucose level (ob/ob mice [1]; 2 h)	The percentage of change in blood glucose level (ob/ob mice [1]; 3 h)	The percentage of change in blood glucose level (ob/ob mice [2]; 15 minutes)	The percentage of change in blood glucose level (ob/ob mice [2]; 40 minutes)	The percentage of change in blood glucose level (ob/ob mice [2]; 90 minutes)	The percentage of change in blood glucose level (ob/ob mice [2]; 120 minutes)
COc1ccc(Cl)cc1C(=O)NCCc1ccc(S(=O)(=O)NC(=O)NC2CCCCC2)cc1 [Glibenclamide]	90.2 ± 7.3%	76.7 ± 10.2%	68.0 ± 7.3%	–	–	–	–
Insulin	–	–	–	113.9 ± 8.3%	96.3 ± 18.0%	90.6 ± 14.7%	101.6 ± 11.2%
